Legend:
[1] = biological target: T1, TLR4 (Homo sapiens, UniProt O00206); assay: Surface TLR specificity, TNF-α secretion in differentiated THP-1; assay type: cell-based; settings: 2 and 5 μM, differentiated THP-1, LPS
T1 construct: in differentiated human THP-1 cells; endogenous in cells; host or cells: differentiated THP-1
Experimental: (§1) RAW 264.7 and differentiated THP-1 cells were seeded into 96-well plates at 2 × 10^4 cells per well, while Daudi cells were seeded at 5 × 10^4 cells per well. After stabilization for 30 min, cells were stimulated with specific TLR agonists for 4 or 24 h. Supernatants were diluted and transferred to precoated ELISA plates to measure TNF-α secretion using kits from Invitrogen. Optical absorbance was measured using a BioTek Synergy HTX multimode microplate reader, and data were interpolated using BioTek Gen5 software.
(§2) The cells were activated with agonistic ligands: […], TLR3 (poly I:C, 2 μg/ml, 24 h), TLR4 (LPS, 10 or 100 ng/ml, 4 h), TLR5 (FLA-ST, 500 ng/ml, 4 h), TLR7 (ORN06/LyoVec, 2 μg/ml, 24 h; and IMQ, 1 μg/ml, 4 h), TLR8 (TL8-506, 2 μg/ml, 24 h) and TLR9 (ODN2395, 1 μM, 4 h) at various concentrations in RAW 264.7 cells, human Daudi cells and THP-1 cells. Data are from at least three independent experiments (n = 3) and statistical differences between the induced case and other cases were analyzed and verified using a one-tailed Student’s t-test (*P < 0.05, **P < 0.01, ***P < 0.001).
(§3) Given the structural similarities among TLR family proteins, achieving high selectivity is challenging. We tested the effects of ETI41 and ETI60 on various surface TLRs to determine their specificity. […] TLRs activate transcription factors, including NF-κB, MAPKs, c-Jun N-terminal kinase (JNK), extracellular signal-regulated kinase (ERK) and IRF7, which regulate cellular functions such as proliferation and apoptosis. Western blot analysis confirmed that ETI41 and ETI60 inhibited IMQ- or ODN2395-induced phosphorylation of MAPKs (p-ERK, p-JNK and p-p38), nuclear translocation of the NF-κB p65 subunit, Iκ-Bα degradation and IRF7 expression in RAW 264.7 cells (Fig. 2a–c and Supplementary Figs. 2 and 3).

[2] = biological target: T2, TLR5 (Homo sapiens, UniProt O60602); assay: as above; assay type: cell-based; settings: 2 and 5 μM, differentiated THP-1, FLA-ST
T2 construct: in differentiated human THP-1 cells; endogenous in cells; host or cells: differentiated THP-1
Experimental: as §1, §2, §3

[3] = test system: endosomal and lysosomal pH; assay: pH assay of endosomes and lysosomes in RAW 264.7; assay type: cell-based, mouse
Experimental: RAW 264.7 cells were seeded into black 96-well plates at […] cells per well and incubated overnight. After washing, the cells were treated with phenol-free RPMI 1640 medium (Gibco). Following 30 min of treatment with ETI41 or ETI60, cells were incubated with 20 µg/ml of pHrodo Red Dextran (Thermo Fisher Scientific) or 10 µM LysoSensor Yellow/Blue DND-160 (Thermo Fisher Scientific). Fluorescence was measured using a BioTek Synergy HTX Multimode Microplate Reader. Data were analyzed using the BioTek Gen5 software.
Fig. 3 Binding mechanism of ETI41 and ETI60 with TLR7 and TLR9. a ETI41 and ETI60 bind to the extracellular domain of TLR7. b Detailed intermolecular interactions ofETI41 and ETI60 are shown with the key residues of TLR7. c ETI41 and ETI60 bind to the extracellular domain of TLR9. d Intermolecular interactions of ETI41 and ETI60 with the key residues of TLR9. The asterisk indicates chain A of TLR7 and TLR9. ETI41 and ETI60 are depicted in ball-and-stick models. Bonds are represented by lines, with distances measured in ångström (Å) units. […] Data presented are from three independent experiments (n = 3), and statistical differences between the induced case and other cases were analyzed and verified using a one-tailed Student’s t-test (*P < 0.05, **P < 0.01, ***P < 0.001). […]

[4] = biological target: T3, mTLR3 (Mus musculus, UniProt Q99MB1); assay: TLR3 inhibition, poly I:C-induced mTNFα in RAW 264.7; assay type: cell-based
T3 construct: reduction in TNF-α secretion in mouse RAW 264.7 cells; endogenous in cells; host or cells: RAW 264.7
Experimental: as §1
One-tailed paired Student’s t-tests were performed using Microsoft Excel (Microsoft). Semi-logarithmic conversions and nonregression curve analyses for calculating 50% lethal concentration (LC50) and 50% inhibitory concentration (IC50) values were conducted using GraphPad Prism 7.0 (GraphPad). The therapeutic index was calculated as […]. Animal experimental results are expressed as mean ± standard deviation and analyzed using SPSS v.20 (IBM SPSS Statistics). Homogeneity of variance was assessed using Levene’s test. […]

T3 sequence (Q99MB1 26-905): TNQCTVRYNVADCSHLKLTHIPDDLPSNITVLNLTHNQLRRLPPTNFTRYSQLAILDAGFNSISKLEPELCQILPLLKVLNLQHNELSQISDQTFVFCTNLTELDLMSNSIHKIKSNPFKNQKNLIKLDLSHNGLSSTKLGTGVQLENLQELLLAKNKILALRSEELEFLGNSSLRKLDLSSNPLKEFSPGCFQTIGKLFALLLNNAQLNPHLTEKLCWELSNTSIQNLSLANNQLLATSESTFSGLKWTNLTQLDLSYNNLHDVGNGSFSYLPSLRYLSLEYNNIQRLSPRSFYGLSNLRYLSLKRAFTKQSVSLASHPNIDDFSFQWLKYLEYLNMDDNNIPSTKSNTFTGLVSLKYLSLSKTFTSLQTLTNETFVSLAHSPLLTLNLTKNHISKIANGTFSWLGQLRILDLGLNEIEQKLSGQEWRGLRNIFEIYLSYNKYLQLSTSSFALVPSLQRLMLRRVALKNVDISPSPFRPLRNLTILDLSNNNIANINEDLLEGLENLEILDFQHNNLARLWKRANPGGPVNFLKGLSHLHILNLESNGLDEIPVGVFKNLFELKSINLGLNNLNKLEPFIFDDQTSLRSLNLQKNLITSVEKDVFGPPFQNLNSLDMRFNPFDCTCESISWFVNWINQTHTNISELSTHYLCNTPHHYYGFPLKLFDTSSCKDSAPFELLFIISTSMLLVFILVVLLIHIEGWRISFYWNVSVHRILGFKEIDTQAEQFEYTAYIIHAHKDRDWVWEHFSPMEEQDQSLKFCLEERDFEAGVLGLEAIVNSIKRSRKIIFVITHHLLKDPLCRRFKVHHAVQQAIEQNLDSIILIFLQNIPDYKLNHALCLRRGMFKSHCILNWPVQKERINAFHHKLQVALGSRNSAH
T1 sequence (O00206 24-839): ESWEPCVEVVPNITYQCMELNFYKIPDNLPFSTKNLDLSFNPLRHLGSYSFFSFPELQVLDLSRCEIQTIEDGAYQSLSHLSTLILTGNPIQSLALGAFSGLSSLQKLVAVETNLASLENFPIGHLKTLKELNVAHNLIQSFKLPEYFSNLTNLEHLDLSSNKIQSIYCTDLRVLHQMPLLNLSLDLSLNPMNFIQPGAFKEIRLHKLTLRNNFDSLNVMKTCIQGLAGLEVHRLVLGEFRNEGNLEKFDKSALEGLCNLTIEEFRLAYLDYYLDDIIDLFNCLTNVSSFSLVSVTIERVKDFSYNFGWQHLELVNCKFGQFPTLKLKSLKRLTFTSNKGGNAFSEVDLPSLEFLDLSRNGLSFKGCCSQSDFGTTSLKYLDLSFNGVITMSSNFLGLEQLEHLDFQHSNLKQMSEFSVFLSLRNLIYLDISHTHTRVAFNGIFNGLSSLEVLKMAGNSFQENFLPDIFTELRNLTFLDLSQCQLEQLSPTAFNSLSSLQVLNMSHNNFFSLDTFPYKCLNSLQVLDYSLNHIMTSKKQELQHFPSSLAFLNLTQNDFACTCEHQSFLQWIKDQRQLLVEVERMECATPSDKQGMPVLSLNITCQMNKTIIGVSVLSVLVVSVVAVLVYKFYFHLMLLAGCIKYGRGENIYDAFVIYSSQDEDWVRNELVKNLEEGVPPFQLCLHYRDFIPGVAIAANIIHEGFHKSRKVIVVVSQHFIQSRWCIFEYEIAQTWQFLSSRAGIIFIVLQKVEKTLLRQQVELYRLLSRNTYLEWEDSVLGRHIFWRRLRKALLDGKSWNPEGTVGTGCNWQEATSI
T1 sequence (Q9Y6Y9 19-160 partner): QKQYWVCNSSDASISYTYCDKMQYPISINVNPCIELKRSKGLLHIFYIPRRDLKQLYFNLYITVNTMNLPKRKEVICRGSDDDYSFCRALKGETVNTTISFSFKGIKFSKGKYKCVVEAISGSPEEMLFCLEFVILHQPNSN
T2 sequence (O60602 21-858): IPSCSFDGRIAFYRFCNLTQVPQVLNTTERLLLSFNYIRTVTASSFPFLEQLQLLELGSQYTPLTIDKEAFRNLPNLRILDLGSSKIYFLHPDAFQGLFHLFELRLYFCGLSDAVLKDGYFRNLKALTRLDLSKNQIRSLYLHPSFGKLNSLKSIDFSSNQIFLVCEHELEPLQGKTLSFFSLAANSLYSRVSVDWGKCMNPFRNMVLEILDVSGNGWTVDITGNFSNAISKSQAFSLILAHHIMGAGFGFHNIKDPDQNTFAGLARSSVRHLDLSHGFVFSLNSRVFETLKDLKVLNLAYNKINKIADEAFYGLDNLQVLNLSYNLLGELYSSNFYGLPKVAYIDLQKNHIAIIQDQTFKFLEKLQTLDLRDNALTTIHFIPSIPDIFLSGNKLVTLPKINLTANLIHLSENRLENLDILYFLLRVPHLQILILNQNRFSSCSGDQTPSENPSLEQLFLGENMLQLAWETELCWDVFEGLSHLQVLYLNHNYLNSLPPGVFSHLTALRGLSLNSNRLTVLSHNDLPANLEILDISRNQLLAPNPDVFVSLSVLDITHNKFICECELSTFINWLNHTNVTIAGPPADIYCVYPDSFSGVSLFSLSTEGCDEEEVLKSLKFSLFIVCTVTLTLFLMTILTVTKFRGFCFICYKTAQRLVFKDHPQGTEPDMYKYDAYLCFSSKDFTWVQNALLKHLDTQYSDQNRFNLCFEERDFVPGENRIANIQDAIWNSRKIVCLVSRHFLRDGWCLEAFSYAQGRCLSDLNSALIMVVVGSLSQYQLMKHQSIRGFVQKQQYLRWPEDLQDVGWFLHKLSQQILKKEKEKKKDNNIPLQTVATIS

SMILES	Inhibition of TLR4 (TNF-α secretion) [1]	Inhibition of TLR5 (TNF-α secretion) [2]	pH of endosomes containing TLR3, TLR7, TLR8 and TLR9 [3]	IC50 [4] [nM]
COc1ccc2c3c(N)c4c(nc3n(CCCN(C)C)c2c1)CCCC4 [ETI60]	neither compound inhibited	neither compound inhibited	did not significantly affect	372
Cc1cc2c(N)c3c(nc2n1CCCN(C)C)CCCCCC3 [ETI41]	neither compound inhibited	neither compound inhibited	did not significantly affect	993

From article PMC12508057, “Discovery of ETI41 and ETI60: novel selective endosomal Toll-like receptor inhibitors for the treatment of autoimmune diseases” (Experimental & Molecular Medicine, 2025)
